Measurements from patent US12306176B2, “Microfluidic bi-directional migration assay” (Ohio State Innovation Foundation, priority 2017, dated 2025).

Assays:
Type in all cases: cell-based, human
MDA-MB-231 cells = test: Microfluidic bi-directional migration (MBDM) assay, mean migration speed and persistence
Source text: To quantify the effects of iEF treatment on directed cell migration speed and persistence, a custom microfluidic bi-directional microtrack (MBDM) assay was developed that enables real-time monitoring with time-lapse microscopy of cell motility.
In this study, the EF sensing mechanisms of breast cancer cells in response to asymmetric iEFs (<100 μV/cm) was investigated. Using a MBDM assay, changes in the speed and persistence of spontaneously migrating MDA-MB-231 breast cancer cells were observed. This cell type was selected for these studies because it is a putative metastatic breast cancer cell line that is also responsive to gradients of a chemoattractant such as EGF (Wang S J, et al. (2004) Exp Cell Res 300 (1):180-189; Wu A, et al. (2013) Proc Natl Acad Sci U S A 110(40):16103-16108). […] This configuration enables direct comparison of cell movement in response to iEFs applied primarily with the direction of cell migration (“parallel”) or against the direction of cell migration (“anti-parallel”) within the same microfluidic device. Here, the field direction is defined as the direction that has the higher peak magnitude, as well as higher time-average field strength.
To calculate persistence, the following protocol was followed for each cell tracked in a microtrack of the MBDM assay. A cell starts at position Pt at time t. After a single time increment, dt, the cell moves to a new position, Pt+dt. The distance traveled during this time is the absolute difference in the two positions denoted as Li: Li=|Pt+dt−Pt|
The total distance traveled is then the sum of all distances traveled during N time increments denoted as Lt. Additionally, the total time of travel is the number of time increments multiplied by the size of the time increments denoted as Tt.
The displacement is simply the difference between the final and initial position: Ld=|PFinal−PInitial|
The MBDM assay was designed to have three ports separated by 700 μm long arrays of parallel microtracks (FIG. 1D). The dimension of each port was 50 mm×15 mm. Cells were seeded in the center port and the top and bottom ports were designated as cell collection port and/or chemokine source reservoir port depending on the experimental condition. Microchannels were designed to have a square cross-section of 20 μm×20 μm. The cross-section dimensions were on the same order as the size of single cells and mimic the dimensions of pre-existing microtracks available to cells in-vivo (Kraning-Rush C M, et al. (2013) lntegr Biol (Camb). 5 (3):606-616). Moreover, these migratory tracks are representative of physiologically relevant matrix metalloproteinase independent cancer-cell migration mode during metastasis (Friedl P & Alexander S (2011) Cell 147 (5):992-1009; Wolf K, et al. (2009) Semin Cell Dev Biol. 20 (8):931-941; Friedl P & Wolf K (2003) Nat Rev Cancer. 3 (5):362; Wolf K, et al. (2007) Nat Cell Biol. 9 (8):893; Wolf K, et al. (2003) J Cell Biol. 160 (2):267-277). The bi-directional design of this assay allows cells to migrate in either direction from the seeding port and provides a better understanding and quantification of the directional bias of external cues such as chemokine gradients and the directional effects of applied iEFs. The large ports for cell seeding ensure uniform seeding density, excellent cell viability, and repeatability.
Cells were washed in culture plates with 1×PBS solution, treated with 0.05% trypsin-EDTA solution (Sigma-Aldrich), and then counted using a hemocytometer. Cells (2×10^5) suspended in migration media were seeded in the middle port (seeding port) with an extremely small flow from the collection ports to the seeding port, which equilibrated in less than 15 minutes. The cells inside the devices were then incubated for 12 hours in migration media following which the media was aspirated and replaced with new media based on the experimental conditions. […]

[1] = tested on: succinate dehydrogenase (SDH); test: SDH activity colorimetric kinetic assay; settings: EGF 25 ng/mL, 12 hours; not significant
Source text: (§1) To investigate whether iEF has an effect on metabolic function of MDA-MB-231 cells, the activity levels of lactate dehydrogenase (LDH) and succinate dehydrogenase (SDH) were examined. LDH is an enzyme that catalyzes the interconversion of pyruvate to lactate as part of the glycolysis chain (Pelicano H, et al. (2006) Oncogene 25 (34):4633). SDH is an enzyme within Complex II of the mitochondria that is utilized in both the tricarboxylic acid (TCA) cycle as well as oxidative phosphorylation (OXPHOS) (Gottlieb E & Tomlinson IP (2005) Nat Rev Cancer. 5 (11):857). As part of the TCA cycle, SDH catalyzes the oxidation of succinate to fumarate, and as part of OXPHOS, SDH transfers two electrons from flavin adenine dinucleotide into the electron transport chain (Gottlieb E & Tomlinson IP (2005) Nat Rev Cancer. 5 (11):857). To determine whether LDH or SDH activity levels were changing, colorimetric kinetic assays were employed. […]
(§2) 1×10^6 cells/well were plated in 6 well plates in growth media for 12 hours followed by migration media (0.1% FBS) for an additional 12 hours. […] The LDH activity assay kit (Sigma-Aldrich, MAK066) and the SDH activity colorimetric assay kit (Sigma-Aldrich, MAK197) were used to quantify LDH and SDH activity respectively. […] For quantification of LDH and SDH, the protocols provided by the supplier were followed. […]

[2] = tested on: lactate dehydrogenase (LDH); test: LDH activity colorimetric kinetic assay; settings: EGF 25 ng/mL, 12 hours; not significant
Source text: as §1, §2

epidermal growth factor [EGF]
mean migration speed (MDA-MB-231 cells; EGF gradient (25 ng/mL) alone, no iEF, no inhibitor): 0.43 μm/min
average persistence (MDA-MB-231 cells; stable EGF gradient alone): 0.84
increase of persistence compared to untreated control (MDA-MB-231 cells; stable EGF gradient alone): 6%
mean migration speed compared to untreated controls (MDA-MB-231 cells; stable EGF gradient alone): increased significantly
increase of SDH activity [1]: 23%
change of LDH activity from control [2]: < 6%
